Experimental data reported in PMC6764291 (Frontiers in Oncology, 2019).
“Also recorded” adds a separate entry of the source.

What was measured:
[1] = tested on: UT-SCC-45; assay: XTT cell viability, UT-SCC-45; assay type: cell-based; conditions: n ≥ 4
Description: The human squamous cell carcinoma cell lines UM-SCC-74A and UM-SCC-74B were kindly provided by Professor TE Carey (University of Michigan, USA) and cultured in Dulbecco's Modified Eagle Medium (DMEM) with 10% fetal bovine serum, 1% L-glutamine, 1% antibiotics (100 IU penicillin and 100 μg/ml streptomycin) as well as 1% non-essential amino acids (all from Biochrom Kg, Berlin, Germany). UT-SCC-45 (kindly provided by Dr. R. Grenman, Turku University Central Hospital, Finland) was cultured in DMEM with the abovementioned additives. HCT116 and A431 were purchased from American Type Culture Collection (Manassas, VA, USA). […]
Five-hundred to ten thousands cells were seeded in flat-bottomed 96-well plates and incubated for 48 h prior to irradiation with 2Gy. […] Plates were incubated for up to 6 h at 37° and absorbance was measured by using a BioMark Microplate Reader (Bio-Rad Laboratories AB, Solna, Sweden).
GraphPad Prism version 6.07 (GraphPad Software, San Diego, USA) was used for data processing and analysis. p-values were determined using unpaired student's t-test for comparison between two groups or one-way ANOVA followed by Tukey's multiple comparisons test, with p < 0.05 (^*), p < 0.01 (^**), p < 0.001 (^***), and p < 0.0001 (^****). […]

[2] = tested on: UM-SCC-74B; assay: Cell cycle analysis by flow cytometry, UM-SCC-74B; assay type: cell-based, human; conditions: for G2/M-phase / S-phase: viable cells, DAPI
Description: (§1) Cells were irradiated using ^137Cs gamma-ray photons at a dose-rate of ~1 Gy/min (Best Theratronics Gammacell® 40Exactor, Springfield, USA).
(§2) Cells were collected and fixed in 70% ethanol at 6, 12, 24, 48, 72, and 96 h post-irradiation and stored at −20°C. For cell cycle analyses, 6, 12, 24, and 48 h samples were rehydrated and washed twice with PBS and stained with DAPI (Sigma Aldrich Sweden, Stockholm, Sweden) using 1 μg/ml for 30 min. 24, 48, 72, and 96 h samples were stained with caspase-3 and Noxa (ab13847 (1:500) and ab13654 (1:1,000), AbCam, Cambridge, UK) overnight at 4°C, followed by incubation with fluorescent labeled secondary antibodies for 90 min (ab 1:400) at room temperature. Analyses were performed using a BD LSR Fortessa flow cytometer (Becton Dickinson Biosciences, San Jose, USA). Data analyses for cleaved caspase-3 and Noxa were performed with BD FACSDiVa (Becton Dickinson Biosciences, San Jose, USA), while cell cycle analyses of exclusively viable cells were performed using FlowJo (Becton, Dickinson Biosciences, San Jose, USA). Coefficient of variation (CV) values, were below seven for all samples.

[3] = tested on: cleaved caspase-3; assay: Flow cytometry cleaved caspase-3, HCT116; assay type: cell-based
Description: as §1, §2

[4] = tested on: Noxa; assay: Flow cytometry Noxa expression, HCT116; assay type: cell-based
Description: as §1, §2

[5] = tested on: UM-SCC-74B spheroids; assay: 3D tumor spheroid growth, UM-SCC-74B; assay type: cell-based, human; conditions: for Maximum time to termination / Median time to termination: volume >600 μm^3; for CDI: CDI = AB/(A*B)
Description: as §1
For liquid overlay 3D spheroid formation, 96-well plates were coated with 0.15% agarose dissolved in PBS with 1% penicillin/streptomycin. 1000 UM-SCC-74B cells/well were seeded and incubated at 37°C for 3 days prior to treatment. […] Half of the medium was replaced every 48 h for the first 10 days, thereafter every 4 days. […] Images were obtained every 2–4 days using a Canon EOS 700D camera mounted on an inverted Nikon Diaphot-TMD microscope. […] Each spheroid was normalized to its own starting volume at the start of treatment (Day 0, growth ratio = 1). Spheroids exceeding a volume of 600 μm^3 were excluded (i.e., terminated) from further analyses as 600 μm^3 is the maximum size possible to obtain in these settings with uncompromised growth conditions.
GraphPad Prism version 6.07 (GraphPad Software, San Diego, USA) was used for data processing and analysis. p-values were determined using unpaired student's t-test for comparison between two groups or one-way ANOVA followed by Tukey's multiple comparisons test, with p < 0.05 (^*), p < 0.01 (^**), p < 0.001 (^***), and p < 0.0001 (^****). For XTT assays cell viability was normalized for irradiated and unirradiated samples separately. […] CDI ≤ 0.7 equaled significant synergistic effect, CDI ≤ 1 equaled additive effect and CDI > 1 equaled antagonistic effect ([29]).

[6] = Combination 2 Gy + 20 μM PM2, 6 h
[7] = Combination 2 Gy + 20 μM PM2, 12 h
[8] = Combination 2 Gy + 20 μM PM2, 24 h
[9] = Combination 2 Gy + 20 μM PM2, 48 h

In the case of `CC(=O)N[C@H](C(=O)N[C@@H](CO)C(=O)N[C@@H](Cc1ccccc1)C(=O)N[C@]1(C)CCCCCCC=CCCC[C@@](C)(C(N)=O)NC(=O)[C@H](CC(C)C)NC(=O)[C@H](CC(C)C)NC(=O)[C@H](C)NC(=O)[C@H](Cc2c[nH]c3ccccc23)NC(=O)[C@H](Cc2ccc(O)cc2)NC(=O)[C@H](CCC(=O)O)NC1=O)[C@@H](C)O` [PM2], the PM2 effect ([1]; 0–20 μM PM2, 0 Gy, wild-type p53 (exon 4–8), HPV positive) is reported as “unresponsive and No response and No”, the “Significant effect of combination” value ([1]; PM2 with 2 Gy EBRT) is reported as “unresponsive and No response and No” and the G2/M-phase ([2]; 20 μM PM2 alone, 6 h) is reported as 19.7%. For the same compound, the S-phase ([2]; 20 μM PM2 alone, 6 h) was 41.6%, the G2/M-phase ([2]; 20 μM PM2 alone, 24 h) was 16.7% and the S-phase ([2]; 20 μM PM2 alone, 24 h) was 12.9%. For the same compound, the G2/M-phase ([2]; 20 μM PM2 alone, 48 h) was 10.8%, the S-phase ([2]; 20 μM PM2 alone, 48 h) was 17.4% and the “S-phase reduction / depletion” value ([2]; 2 Gy + 20 μM PM2) was “S-phase reduction occurred as early as 12 h post-treatment; also recorded: S-phase depletion at 24 h post-treatment”. For the same compound, the G2/M-phase [2, 6] was 37.9%, the S-phase [2, 6] was 42.9% and the G2/M-phase [2, 7] was 39.4%. The S-phase [2, 7] was 7.31%, the G2/M-phase [2, 8] was 23.8% and the S-phase [2, 8] was 2.89%. For the same compound, the G2/M-phase [2, 9] was 20.6%, the S-phase [2, 9] was 5.37% and the “cleaved caspase-3 expression” value ([3]; 20 μM PM2, 72 h) was “distinct increases”. For the same compound, the “cleaved caspase-3 increase compared to controls” value ([3]; 20 μM PM2-treated, peak at 96 h, n ≥ 3) was 10 fold, the “Noxa expression” value ([4]; 20 μM PM2, 72 h) was “distinct increases” and the “Noxa increase, combination compared to PM2 therapy alone” value ([4]; 2 Gy + 20 μM PM2, p ≤ 0.01, n ≥ 3) was 4 fold. The “Maximum time to termination” value ([5]; 2 × 2 Gy and 3 × PM2) was 25 days, the “Median time to termination” value ([5]; 2 × 2 Gy and 3 × PM2) was 21 days and the spheroid response ([5]; 2 × 2 Gy/3 × 20 μM PM2, day 14) was “continuous growth inhibition throughout day 14”. For the same compound, the “spheroid size of untreated controls” value ([5]; 3 × 2 Gy + single dose of PM2, day 14) was 75%, the “increase of median time to termination compared to untreated controls” value ([5]; 3 × 2 Gy and 3 × PM2) was 2 fold and the “Maximum time to termination” value ([5]; 3 × 2 Gy and 3 × PM2) was 35 days. The “Median time to termination” value ([5]; 3 × 2 Gy and 3 × PM2) was 28 days, the spheroid response ([5]; 3 × 2 Gy/3 × 20 μM PM2, day 14) was “continuous growth inhibition throughout day 14” and the “spheroid size of treated spheroids as % of untreated controls” value ([5]; 5 × 20 μM PM2 at 48 h intervals, day 14, no radiation) was 57%. The “spheroid size of untreated controls” value ([5]; 5 × 2 Gy + single dose of PM2, day 14) was 55%, the “Maximum time to termination” value ([5]; 5 × 2 Gy and 1 × PM2) was 25 days and the “Median time to termination” value ([5]; 5 × 2 Gy and 1 × PM2) was 21 days. The “Maximum time to termination” value ([5]; 5 × 2 Gy and 5 × PM2) was “Not reached”, the “Median time to termination” value ([5]; 5 × 2 Gy and 5 × PM2) was “Not reached” and the spheroid response ([5]; 5 × 2 Gy/5 × 20 μM PM2) was “spheroid disintegration and cell death”. For the same compound, the “Maximum time to termination” value ([5]; 5 × PM2, no radiation) was 21 days, the “Median time to termination” value ([5]; 5 × PM2, no radiation) was 21 days and the CDI ([5]; Day 10, 1 × 20 μM PM2 + 1 × 2 Gy) was 0.705. For the same compound, the CDI ([5]; Day 10, 1 × 20 μM PM2 + 2 × 2 Gy) was 0.507, the CDI ([5]; Day 10, 1 × 20 μM PM2 + 3 × 2 Gy) was 0.493 and the CDI ([5]; Day 10, 1 × 20 μM PM2 + 5 × 2 Gy) was 0.472. For the same compound, the CDI ([5]; Day 10, 2 × 20 μM PM2 + 2 × 2 Gy) was 0.209, the CDI ([5]; Day 10, 3 × 20 μM PM2 + 1 × 2 Gy) was 0.412 and the CDI ([5]; Day 10, 3 × 20 μM PM2 + 2 × 2 Gy) was 0.122. It also gave a CDI ([5]; Day 10, 3 × 20 μM PM2 + 3 × 2 Gy) of 0.244, a CDI ([5]; Day 10, 5 × 20 μM PM2 + 1 × 2 Gy) of 0.398 and a CDI ([5]; Day 10, 5 × 20 μM PM2 + 5 × 2 Gy) of 0.201. The CDI ([5]; Day 14, 1 × 20 μM PM2 + 1 × 2 Gy) was 1.03, the CDI ([5]; Day 14, 1 × 20 μM PM2 + 2 × 2 Gy) was 0.93 and the CDI ([5]; Day 14, 1 × 20 μM PM2 + 3 × 2 Gy) was 0.821. The CDI ([5]; Day 14, 1 × 20 μM PM2 + 5 × 2 Gy) was 0.815, the CDI ([5]; Day 14, 2 × 20 μM PM2 + 2 × 2 Gy) was 0.51 and the CDI ([5]; Day 14, 3 × 20 μM PM2 + 1 × 2 Gy) was 0.944. For the same compound, the CDI ([5]; Day 14, 3 × 20 μM PM2 + 2 × 2 Gy) was 0.333, the CDI ([5]; Day 14, 3 × 20 μM PM2 + 3 × 2 Gy) was 0.182 and the CDI ([5]; Day 14, 5 × 20 μM PM2 + 1 × 2 Gy) was 0.568. The CDI ([5]; Day 14, 5 × 20 μM PM2 + 5 × 2 Gy) was 0.023, the “effect on proliferation rate of spheroids” value ([5]; all combination treatments of PM2 and EBRT, prior to day 14) was “synergistic inhibitory effects” and the “spheroid response (abstract)” value ([5]; combination of PM2 and EBRT) was “growth inhibition and complete spheroid disintegration”. The spheroid disintegration ([5]; five repeated doses of both PM2 (20 μM) and 2 Gy) was 100%, the spheroid growth inhibition ([5]; repeated PM2 doses at 48 h intervals, no radiation) was “did inhibit growth in a dose-dependent manner” and the spheroid growth inhibition ([5]; single 20 μM PM2, 48 h incubation, no radiation) was “failed to impair UM-SCC-74B spheroid growth”. For the same compound, the spheroid growth inhibition ([5]; single dose of PM2 with EBRT) was “greater inhibitory effects than either treatment alone” and the spheroid growth inhibition ([5]; two repeated doses of each of PM2 and EBRT (data not shown)) was “growth inhibition surpassing the standard 14-day assay”.
